Results published in patent publication US20080293814A1, “CONCENTRATE ESMOLOL” (priority 2007, published 2008).
Counter-ions that a name gives are not always drawn.

Experiment: pH dependence of esmolol degradation in solution
Format: physicochemical
Method: While lower concentration (e.g., 10 mg/ml) ready-to-use compositions of esmolol require an additional buffer to maintain pH, higher concentrations of esmolol in the present invention compositions, provide self-buffering capacity to the composition. […] The concentrate can include a pharmaceutically acceptable buffer to aid in maintaining the pH in a range of from about 3.5 to about 7.0. Preferably, the pH is maintained between about 4.5 and about 5.5, more preferably between 4.9 and 5.1.

pH at which esmolol is most stable: about 5.0
Structure (SMILES): COC(=O)CCc1ccc(OCC(O)CNC(C)C)cc1 (stereo not shown) [esmolol, methyl-3-[4-(2-hydroxy-3-isopropylamino)propoxy]phenylpropionate hydrochloride]
